Assay results taken from PMC5513037, “Examining the influence of specificity ligands and ATP-competitive ligands on the overall effectiveness of bivalent kinase inhibitors” (Proteome Science, 2017).
pIC50: −log10 of the molar value.

What was measured:
Experiment in all cases: KAM-matrix competition in K562 lysate;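 for 0.001 uM KAM: median log10 fold change of treatment over DMSO control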;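 for 0.01 uM KAM: median log10 fold change of treatment over DMSO control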;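 for 0.1 uM KAM: median log10 fold change of treatment over DMSO control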;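 for 1 uM KAM: median log10 fold change of treatment over DMSO control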;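 for 10 uM KAM: median log10 fold change of treatment over DMSO control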
Type in all cases: binding
[1] = molecular target: T1, RPS6KA3 (Homo sapiens, UniProt P51812);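 for 0.001 uM KAM: median log10 fold change of treatment over DMSO control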;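 for 0.01 uM KAM: median log10 fold change of treatment over DMSO control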;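 for 0.1 uM KAM: median log10 fold change of treatment over DMSO control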;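 for 1 uM KAM: median log10 fold change of treatment over DMSO control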;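 for 10 uM KAM: median log10 fold change of treatment over DMSO control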
T1 construct: endogenous in cells; host or cells: K562
T1 sequence (P51812 whole entry): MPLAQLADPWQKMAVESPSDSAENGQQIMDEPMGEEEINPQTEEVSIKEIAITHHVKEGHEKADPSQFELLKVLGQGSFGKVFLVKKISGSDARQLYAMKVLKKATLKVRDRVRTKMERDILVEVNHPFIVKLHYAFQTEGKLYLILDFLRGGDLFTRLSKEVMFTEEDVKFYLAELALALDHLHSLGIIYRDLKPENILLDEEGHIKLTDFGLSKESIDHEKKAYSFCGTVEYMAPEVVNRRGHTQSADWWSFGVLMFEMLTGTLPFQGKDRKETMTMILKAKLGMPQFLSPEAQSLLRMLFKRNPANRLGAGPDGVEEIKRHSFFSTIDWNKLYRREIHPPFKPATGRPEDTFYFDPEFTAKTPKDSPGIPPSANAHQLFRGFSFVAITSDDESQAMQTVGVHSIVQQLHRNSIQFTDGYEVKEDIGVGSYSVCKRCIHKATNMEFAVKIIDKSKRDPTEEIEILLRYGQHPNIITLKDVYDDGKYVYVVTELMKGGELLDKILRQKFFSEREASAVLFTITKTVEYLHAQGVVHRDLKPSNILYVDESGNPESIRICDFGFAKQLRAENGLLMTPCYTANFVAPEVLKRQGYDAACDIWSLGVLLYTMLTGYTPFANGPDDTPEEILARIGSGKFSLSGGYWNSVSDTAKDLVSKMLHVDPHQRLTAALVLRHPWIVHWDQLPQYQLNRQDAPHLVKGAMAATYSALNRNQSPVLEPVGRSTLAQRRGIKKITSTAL
Description: (§1) Supplement 12953_2017_125_MOESM1_ESM.zip/MS_Supp Info.xlsx, sheet "KAM" | column: 10 uM KAM; 1 uM KAM; 0.1 uM KAM; 0.01 uM KAM; 0.001 uM KAM; RB50

[2] = molecular target: T2, PRKD3 (Homo sapiens, UniProt O94806)
T2 construct: endogenous in cells; host or cells: K562
T2 sequence (O94806 1-890): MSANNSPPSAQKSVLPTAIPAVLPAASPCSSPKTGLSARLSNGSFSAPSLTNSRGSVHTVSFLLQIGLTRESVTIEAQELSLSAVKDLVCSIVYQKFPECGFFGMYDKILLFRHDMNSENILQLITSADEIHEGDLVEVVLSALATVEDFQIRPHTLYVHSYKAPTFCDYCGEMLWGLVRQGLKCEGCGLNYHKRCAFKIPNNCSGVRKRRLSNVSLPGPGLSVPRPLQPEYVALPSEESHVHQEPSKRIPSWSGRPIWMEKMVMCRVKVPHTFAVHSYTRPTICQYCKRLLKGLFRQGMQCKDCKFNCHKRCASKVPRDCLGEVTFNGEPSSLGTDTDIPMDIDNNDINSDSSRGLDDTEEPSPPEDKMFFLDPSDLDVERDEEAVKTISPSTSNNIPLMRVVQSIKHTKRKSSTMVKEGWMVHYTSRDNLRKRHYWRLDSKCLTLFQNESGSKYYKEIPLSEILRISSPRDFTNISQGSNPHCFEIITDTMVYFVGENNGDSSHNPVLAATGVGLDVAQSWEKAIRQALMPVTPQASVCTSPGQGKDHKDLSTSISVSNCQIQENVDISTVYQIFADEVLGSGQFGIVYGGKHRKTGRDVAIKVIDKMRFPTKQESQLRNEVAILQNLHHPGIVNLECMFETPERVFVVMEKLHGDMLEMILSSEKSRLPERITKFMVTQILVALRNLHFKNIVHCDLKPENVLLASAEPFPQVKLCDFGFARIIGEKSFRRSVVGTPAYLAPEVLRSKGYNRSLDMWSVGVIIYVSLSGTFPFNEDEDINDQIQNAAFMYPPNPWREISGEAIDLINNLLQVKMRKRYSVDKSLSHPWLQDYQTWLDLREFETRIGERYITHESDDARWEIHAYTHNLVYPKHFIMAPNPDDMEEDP
Description: as §1

[3] = molecular target: T3, IKBKE (Homo sapiens, UniProt Q14164)
T3 construct: endogenous in cells; host or cells: K562 cells (lysate)
T3 sequence (Q14164 1-716): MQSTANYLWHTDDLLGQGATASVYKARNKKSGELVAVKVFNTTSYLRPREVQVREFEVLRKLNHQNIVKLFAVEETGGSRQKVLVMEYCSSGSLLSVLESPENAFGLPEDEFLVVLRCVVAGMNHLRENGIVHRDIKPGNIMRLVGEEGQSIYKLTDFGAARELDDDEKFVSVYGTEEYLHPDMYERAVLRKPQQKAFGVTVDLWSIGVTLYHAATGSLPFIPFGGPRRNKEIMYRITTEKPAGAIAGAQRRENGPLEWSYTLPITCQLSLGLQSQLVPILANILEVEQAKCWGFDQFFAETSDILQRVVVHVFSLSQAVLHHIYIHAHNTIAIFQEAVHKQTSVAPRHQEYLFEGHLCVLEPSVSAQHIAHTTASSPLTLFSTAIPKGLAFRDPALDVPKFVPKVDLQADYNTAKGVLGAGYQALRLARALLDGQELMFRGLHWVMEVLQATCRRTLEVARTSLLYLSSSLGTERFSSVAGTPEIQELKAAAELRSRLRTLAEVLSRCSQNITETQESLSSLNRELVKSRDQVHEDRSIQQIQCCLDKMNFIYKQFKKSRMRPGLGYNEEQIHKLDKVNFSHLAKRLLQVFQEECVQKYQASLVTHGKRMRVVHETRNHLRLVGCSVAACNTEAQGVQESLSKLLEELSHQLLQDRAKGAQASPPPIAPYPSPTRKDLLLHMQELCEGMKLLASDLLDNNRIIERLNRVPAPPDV
Description: as §1

[4] = molecular target: T4, MYO3A (Homo sapiens, UniProt Q8NEV4);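 for 0.001 uM KAM: median log10 fold change of treatment over DMSO control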;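 for 0.01 uM KAM: median log10 fold change of treatment over DMSO control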;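 for 0.1 uM KAM: median log10 fold change of treatment over DMSO control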;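 for 1 uM KAM: median log10 fold change of treatment over DMSO control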;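 for 10 uM KAM: median log10 fold change of treatment over DMSO control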
T4 construct: endogenous in cells; host or cells: K562
T4 sequence (Q8NEV4 whole entry): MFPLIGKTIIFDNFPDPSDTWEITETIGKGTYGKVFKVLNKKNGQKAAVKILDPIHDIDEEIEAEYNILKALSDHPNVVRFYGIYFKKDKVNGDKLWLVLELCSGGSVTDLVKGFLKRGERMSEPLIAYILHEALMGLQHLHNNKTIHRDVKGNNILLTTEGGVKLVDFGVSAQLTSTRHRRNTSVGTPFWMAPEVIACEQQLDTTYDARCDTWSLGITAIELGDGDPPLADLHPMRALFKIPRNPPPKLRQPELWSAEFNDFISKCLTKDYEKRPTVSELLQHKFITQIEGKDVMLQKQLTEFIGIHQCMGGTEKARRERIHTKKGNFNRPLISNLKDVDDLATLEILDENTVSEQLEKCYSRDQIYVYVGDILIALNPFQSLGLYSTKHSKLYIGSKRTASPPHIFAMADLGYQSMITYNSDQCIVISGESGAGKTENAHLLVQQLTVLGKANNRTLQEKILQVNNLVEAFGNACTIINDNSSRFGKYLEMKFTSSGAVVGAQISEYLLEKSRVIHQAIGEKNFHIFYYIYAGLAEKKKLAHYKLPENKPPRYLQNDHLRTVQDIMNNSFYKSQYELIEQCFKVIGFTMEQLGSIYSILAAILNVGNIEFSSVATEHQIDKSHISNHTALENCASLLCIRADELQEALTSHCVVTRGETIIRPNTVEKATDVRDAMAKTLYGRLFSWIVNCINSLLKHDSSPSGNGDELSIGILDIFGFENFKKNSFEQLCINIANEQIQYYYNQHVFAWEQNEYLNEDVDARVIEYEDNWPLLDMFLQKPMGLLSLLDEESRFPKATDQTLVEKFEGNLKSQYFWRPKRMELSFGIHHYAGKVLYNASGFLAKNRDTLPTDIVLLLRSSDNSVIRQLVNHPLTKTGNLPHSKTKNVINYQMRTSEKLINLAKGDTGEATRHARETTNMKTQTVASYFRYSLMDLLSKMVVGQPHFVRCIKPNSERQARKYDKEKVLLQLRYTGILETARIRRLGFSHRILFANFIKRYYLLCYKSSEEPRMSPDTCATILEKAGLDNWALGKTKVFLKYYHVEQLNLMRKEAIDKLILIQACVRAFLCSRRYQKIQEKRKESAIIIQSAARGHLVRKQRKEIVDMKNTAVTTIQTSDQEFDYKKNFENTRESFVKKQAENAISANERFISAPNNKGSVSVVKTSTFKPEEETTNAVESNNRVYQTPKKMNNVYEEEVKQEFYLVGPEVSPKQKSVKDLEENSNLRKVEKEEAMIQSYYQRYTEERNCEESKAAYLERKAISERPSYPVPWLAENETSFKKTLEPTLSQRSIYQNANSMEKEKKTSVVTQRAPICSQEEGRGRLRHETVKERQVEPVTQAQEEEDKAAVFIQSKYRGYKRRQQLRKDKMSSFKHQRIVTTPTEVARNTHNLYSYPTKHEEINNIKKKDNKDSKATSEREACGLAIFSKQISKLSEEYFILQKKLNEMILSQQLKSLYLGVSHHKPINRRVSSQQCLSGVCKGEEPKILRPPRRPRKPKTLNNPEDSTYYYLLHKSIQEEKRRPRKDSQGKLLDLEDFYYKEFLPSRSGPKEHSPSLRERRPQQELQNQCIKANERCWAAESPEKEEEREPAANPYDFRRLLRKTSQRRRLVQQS
Description: as §1

[5] = molecular target: T5, HIPK1 (Homo sapiens, UniProt Q86Z02)
T5 construct: endogenous in cells; host or cells: K562
T5 sequence (Q86Z02 whole entry): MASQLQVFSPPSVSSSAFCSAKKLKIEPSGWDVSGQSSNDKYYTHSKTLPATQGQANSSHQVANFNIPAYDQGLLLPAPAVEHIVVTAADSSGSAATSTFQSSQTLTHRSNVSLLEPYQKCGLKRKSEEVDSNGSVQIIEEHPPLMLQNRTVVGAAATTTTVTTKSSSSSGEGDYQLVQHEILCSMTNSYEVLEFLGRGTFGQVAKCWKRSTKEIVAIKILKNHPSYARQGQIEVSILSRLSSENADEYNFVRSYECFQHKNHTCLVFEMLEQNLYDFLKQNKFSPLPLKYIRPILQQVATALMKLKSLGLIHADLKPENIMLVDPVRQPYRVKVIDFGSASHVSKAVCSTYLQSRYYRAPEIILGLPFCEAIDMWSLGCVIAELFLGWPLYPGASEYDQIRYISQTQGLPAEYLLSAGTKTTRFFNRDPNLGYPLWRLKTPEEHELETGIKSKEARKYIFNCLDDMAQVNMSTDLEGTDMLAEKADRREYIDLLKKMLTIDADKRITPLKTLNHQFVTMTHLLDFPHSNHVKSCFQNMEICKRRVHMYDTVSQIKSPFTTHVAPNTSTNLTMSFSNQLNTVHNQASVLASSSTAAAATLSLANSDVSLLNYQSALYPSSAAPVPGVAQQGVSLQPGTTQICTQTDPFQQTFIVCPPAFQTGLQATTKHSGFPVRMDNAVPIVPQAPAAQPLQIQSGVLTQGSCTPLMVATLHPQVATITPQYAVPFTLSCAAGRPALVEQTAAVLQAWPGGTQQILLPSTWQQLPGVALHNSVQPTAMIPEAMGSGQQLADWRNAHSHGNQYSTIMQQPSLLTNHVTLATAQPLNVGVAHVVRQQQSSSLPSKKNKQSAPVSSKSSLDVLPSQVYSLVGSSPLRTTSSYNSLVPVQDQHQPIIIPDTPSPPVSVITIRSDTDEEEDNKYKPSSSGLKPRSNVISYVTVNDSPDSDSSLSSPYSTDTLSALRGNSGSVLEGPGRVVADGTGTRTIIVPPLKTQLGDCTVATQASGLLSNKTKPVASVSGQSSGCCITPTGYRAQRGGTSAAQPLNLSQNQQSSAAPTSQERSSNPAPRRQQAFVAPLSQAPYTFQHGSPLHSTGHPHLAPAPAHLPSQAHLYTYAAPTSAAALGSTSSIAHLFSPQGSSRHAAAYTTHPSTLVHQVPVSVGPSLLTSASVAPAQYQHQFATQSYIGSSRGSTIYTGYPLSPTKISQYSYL
Description: as §1

[6] = molecular target: T6, PBK (Homo sapiens, UniProt Q96KB5);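 for 0.001 uM KAM: median log10 fold change of treatment over DMSO control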;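 for 0.01 uM KAM: median log10 fold change of treatment over DMSO control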;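 for 0.1 uM KAM: median log10 fold change of treatment over DMSO control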;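 for 1 uM KAM: median log10 fold change of treatment over DMSO control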;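 for 10 uM KAM: median log10 fold change of treatment over DMSO control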
T6 construct: endogenous in cells; host or cells: K562
T6 sequence (Q96KB5 1-322): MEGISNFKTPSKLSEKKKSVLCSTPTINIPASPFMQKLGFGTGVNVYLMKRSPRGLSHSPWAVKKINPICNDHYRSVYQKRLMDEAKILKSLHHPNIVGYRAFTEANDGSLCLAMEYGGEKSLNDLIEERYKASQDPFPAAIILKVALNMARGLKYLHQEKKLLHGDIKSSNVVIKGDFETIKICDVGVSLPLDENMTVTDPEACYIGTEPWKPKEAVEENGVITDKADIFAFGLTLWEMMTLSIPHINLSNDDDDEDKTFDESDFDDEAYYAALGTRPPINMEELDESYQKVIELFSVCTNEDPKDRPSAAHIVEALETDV
Description: as §1

[7] = molecular target: T7, SIK2 (Homo sapiens, UniProt Q9H0K1)
T7 construct: endogenous in cells; host or cells: K562 cells (lysate)
T7 sequence (Q9H0K1 whole entry): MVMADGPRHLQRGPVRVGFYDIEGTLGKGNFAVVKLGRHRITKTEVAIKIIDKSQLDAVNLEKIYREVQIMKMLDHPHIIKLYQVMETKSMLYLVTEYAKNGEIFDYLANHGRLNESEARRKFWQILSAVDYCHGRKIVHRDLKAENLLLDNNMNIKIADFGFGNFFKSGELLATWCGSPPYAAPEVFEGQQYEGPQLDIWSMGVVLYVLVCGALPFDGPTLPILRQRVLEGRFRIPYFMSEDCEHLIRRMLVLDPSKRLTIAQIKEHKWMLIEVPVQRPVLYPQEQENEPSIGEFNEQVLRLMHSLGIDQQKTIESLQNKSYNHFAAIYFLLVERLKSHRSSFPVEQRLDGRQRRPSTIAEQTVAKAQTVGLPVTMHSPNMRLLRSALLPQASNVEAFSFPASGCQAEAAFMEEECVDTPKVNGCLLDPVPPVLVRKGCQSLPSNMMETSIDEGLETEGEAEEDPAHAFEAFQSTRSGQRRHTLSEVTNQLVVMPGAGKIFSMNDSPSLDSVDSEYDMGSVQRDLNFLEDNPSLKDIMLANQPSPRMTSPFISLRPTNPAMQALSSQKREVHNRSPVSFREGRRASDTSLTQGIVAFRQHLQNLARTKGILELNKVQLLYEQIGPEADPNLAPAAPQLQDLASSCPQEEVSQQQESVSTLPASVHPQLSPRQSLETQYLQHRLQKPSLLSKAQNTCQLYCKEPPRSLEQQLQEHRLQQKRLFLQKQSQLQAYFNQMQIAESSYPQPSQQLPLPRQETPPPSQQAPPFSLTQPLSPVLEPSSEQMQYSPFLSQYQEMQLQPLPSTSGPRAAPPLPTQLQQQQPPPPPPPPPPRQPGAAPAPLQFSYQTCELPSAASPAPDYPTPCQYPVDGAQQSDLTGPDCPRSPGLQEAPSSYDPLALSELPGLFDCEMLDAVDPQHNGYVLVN
Description: as §1

[8] = KAM 0.001-10 uM, read-out: RB50 (the source's name)
[9] = read-out: RB50 (the source's name)

N#CCc1ccc(Nc2nc(NCCCN)cc(Nc3cc(C4CC4)[nH]n3)n2)cc1 [KAM]
pIC50 [1, 8]: < 5.00 | 0.001 uM KAM ([1]; relative to 0 uM KAM = 0): -0.01612 | 0.01 uM KAM ([1]; relative to 0 uM KAM = 0): -0.01929 | 0.1 uM KAM ([1]; relative to 0 uM KAM = 0): -0.05841 | 1 uM KAM ([1]; relative to 0 uM KAM = 0): -0.1372 | 10 uM KAM ([1]; relative to 0 uM KAM = 0): -0.2816 | median Log10 fold change ([2]; 0.001 uM KAM): -0.02816 | median Log10 fold change ([2]; 0.01 uM KAM): -0.02551 | median Log10 fold change ([2]; 0.1 uM KAM): -0.171 | median Log10 fold change ([2]; 1 uM KAM): -0.366 | median Log10 fold change ([2]; 10 uM KAM): -0.539 | pIC50 [2, 9]: 6.20 | median Log10 fold change ([3]; 0.001 uM KAM): -0.04139 | median Log10 fold change ([3]; 0.01 uM KAM): -0.01605 | median Log10 fold change ([3]; 0.1 uM KAM): -0.1319 | median Log10 fold change ([3]; 1 uM KAM): -0.3552 | median Log10 fold change ([3]; 10 uM KAM): -0.4826 | pIC50 [3, 9]: 6.08 | pIC50 [4, 8]: < 5.00 | 0.001 uM KAM ([4]; relative to 0 uM KAM = 0): -0.00983 | 0.01 uM KAM ([4]; relative to 0 uM KAM = 0): 0.0682 | 0.1 uM KAM ([4]; relative to 0 uM KAM = 0): 0.01204 | 1 uM KAM ([4]; relative to 0 uM KAM = 0): 0.07454 | 10 uM KAM ([4]; relative to 0 uM KAM = 0): -0.0706 | median Log10 fold change ([5]; 0.001 uM KAM): 0.007007 | median Log10 fold change ([5]; 0.01 uM KAM): -0.007344 | median Log10 fold change ([5]; 0.1 uM KAM): -0.151 | median Log10 fold change ([5]; 1 uM KAM): -0.3582 | median Log10 fold change ([5]; 10 uM KAM): -0.4749 | pIC50 [5, 9]: 6.11 | pIC50 [6, 8]: < 5.00 | 0.001 uM KAM ([6]; relative to 0 uM KAM = 0): 0.04398 | 0.01 uM KAM ([6]; relative to 0 uM KAM = 0): 0.009269 | 0.1 uM KAM ([6]; relative to 0 uM KAM = 0): 0.0383 | 1 uM KAM ([6]; relative to 0 uM KAM = 0): 0.01738 | 10 uM KAM ([6]; relative to 0 uM KAM = 0): 0.0482 | median Log10 fold change ([7]; 0.001 uM KAM): -0.01021 | median Log10 fold change ([7]; 0.01 uM KAM): -0.008818 | median Log10 fold change ([7]; 0.1 uM KAM): -0.08618 | median Log10 fold change ([7]; 1 uM KAM): -0.3925 | median Log10 fold change ([7]; 10 uM KAM): -0.5017 | pIC50 [7, 9]: 6.10
